Measured values published in ChEMBL document CHEMBL1201862, “PubChem BioAssay data set” (2004).
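Grown in 96-well plates, cells were treated for 48 hours with each compound at five concentrations. Insufficient inhibition: endpoint recorded as highest concentration tested. At the GI50, growth is halved.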 Calls of active or inactive are those of the source. Rule as the data show it: active = GI50 up to about 1.1 µM and inactive = higher.

What was measured:
Assay in all cases: inhibition of tumour cell growth, NCI panel, 48 h
786-0 = test system: 786-0
A498 = test system: A498
A549 = test system: A549
ACHN = test system: ACHN
BT-549 = test system: BT-549
CAKI-1 = test system: CAKI-1
CCRF-CEM = test system: CCRF-CEM
COLO 205 = test system: COLO 205
DU-145 = test system: DU-145
EKVX = test system: EKVX
HCC 2998 = test system: HCC 2998
HCT-116 = test system: HCT-116
HCT-15 = test system: HCT-15
HL-60 = test system: HL-60
HOP-62 = test system: HOP-62
HOP-92 = test system: HOP-92
HT-29 = test system: HT-29
Hs-578T = test system: Hs-578T
IGROV-1 = test system: IGROV-1
K562 = test system: K562
KM12 = test system: KM12
LOX IMVI = test system: LOX IMVI
M14 = test system: M14
MCF7 = test system: MCF7
MDA-MB-231 = test system: MDA-MB-231
MDA-MB-435 = test system: MDA-MB-435
MDA-N = test system: MDA-N
MOLT-4 = test system: MOLT-4
Malme-3M = test system: Malme-3M
NCI-H226 = test system: NCI-H226
NCI-H23 = test system: NCI-H23
NCI-H460 = test system: NCI-H460
NCI-H522 = test system: NCI-H522
NCI/ADR-RES = test system: NCI/ADR-RES
OVCAR-3 = test system: OVCAR-3
OVCAR-4 = test system: OVCAR-4
OVCAR-5 = test system: OVCAR-5
OVCAR-8 = test system: OVCAR-8
PC-3 = test system: PC-3
RPMI-8226 = test system: RPMI-8226
RXF 393 = test system: RXF 393
SF-268 = test system: SF-268
SF-295 = test system: SF-295
SK-MEL-28 = test system: SK-MEL-28
SK-MEL-2 = test system: SK-MEL-2
SK-MEL-5 = test system: SK-MEL-5
SK-OV-3 = test system: SK-OV-3
SN12C = test system: SN12C
SNB-19 = test system: SNB-19
SNB-75 = test system: SNB-75
SR = test system: SR
SW-620 = test system: SW-620
T47D = test system: T47D
TK-10 = test system: TK-10
U-251 = test system: U-251
UACC-257 = test system: UACC-257
UACC-62 = test system: UACC-62
UO-31 = test system: UO-31
SF-539 = test system: SF-539

Q: With `C/C(Cl)=N/OC(=O)Nc1ccc(S(N)(=O)=O)c(C)c1` as the molecule, how does the GI50 (786-0) read?
A: 2.03 µM (inactive)

Q: What about the GI50 (A498) of the same molecule?
A: 18.2 µM (inactive)

Q: What about the GI50 (A549) of the same molecule?
A: 17.5 µM (inactive)

Q: And the GI50 (ACHN)?
A: 2.15 µM (inactive)

Q: And the GI50 (BT-549)?
A: 12.3 µM (inactive)

Q: And the GI50 (CAKI-1)?
A: 1.83 µM (inactive)

Q: What about the GI50 (CCRF-CEM) of the same molecule?
A: 1.07 µM (active)

Q: What about the GI50 (COLO 205) of the same molecule?
A: 2.17 µM (inactive)

Q: And the GI50 (DU-145)?
A: 16.6 µM (inactive)

Q: And the GI50 (EKVX)?
A: 5.75 µM (inactive)

Q: And the GI50 (HCC 2998)?
A: 18.4 µM (inactive)

Q: What about the GI50 (HCT-116) of the same molecule?
A: 12 µM (inactive)

Q: What about the GI50 (HCT-15) of the same molecule?
A: 2.02 µM

Q: What about the GI50 (HL-60) of the same molecule?
A: 1.42 µM (inactive)

Q: What about the GI50 (HOP-62) of the same molecule?
A: 19.9 µM (inactive)

Q: What about the GI50 (HOP-92) of the same molecule?
A: 2 µM (inactive)

Q: And the GI50 (HT-29)?
A: 17.8 µM (inactive)

Q: What about the GI50 (Hs-578T) of the same molecule?
A: 43.4 µM (inactive)

Q: And the GI50 (IGROV-1)?
A: 15.4 µM (inactive)

Q: What about the GI50 (K562) of the same molecule?
A: 1.34 µM (inactive)

Q: What about the GI50 (KM12) of the same molecule?
A: 18.6 µM (inactive)

Q: And the GI50 (LOX IMVI)?
A: 2.27 µM (inactive)

Q: What about the GI50 (M14) of the same molecule?
A: 9.14 µM (inactive)

Q: And the GI50 (MCF7)?
A: 5.38 µM (inactive)

Q: And the GI50 (MDA-MB-231)?
A: 8.26 µM (inactive)

Q: And the GI50 (MDA-MB-435)?
A: 15.1 µM (inactive)

Q: And the GI50 (MDA-N)?
A: 11.7 µM (inactive)

Q: What about the GI50 (MOLT-4) of the same molecule?
A: 1.5 µM (inactive)

Q: And the GI50 (Malme-3M)?
A: 2.08 µM (inactive)

Q: And the GI50 (NCI-H226)?
A: 23.6 µM (inactive)

Q: And the GI50 (NCI-H23)?
A: 18.1 µM (inactive)

Q: And the GI50 (NCI-H460)?
A: 39.9 µM (inactive)

Q: And the GI50 (NCI-H522)?
A: 1.45 µM (inactive)

Q: And the GI50 (NCI/ADR-RES)?
A: 14.1 µM (inactive)

Q: What about the GI50 (OVCAR-3) of the same molecule?
A: 4.46 µM (inactive)

Q: And the GI50 (OVCAR-4)?
A: 15.5 µM (inactive)

Q: And the GI50 (OVCAR-5)?
A: 18.3 µM (inactive)

Q: And the GI50 (OVCAR-8)?
A: 24.7 µM (inactive)

Q: And the GI50 (PC-3)?
A: 18.3 µM (inactive)

Q: What about the GI50 (RPMI-8226) of the same molecule?
A: 1.95 µM (inactive)

Q: What about the GI50 (RXF 393) of the same molecule?
A: 16.9 µM (inactive)

Q: What about the GI50 (SF-268) of the same molecule?
A: 26.1 µM (inactive)

Q: And the GI50 (SF-295)?
A: 21 µM (inactive)

Q: And the GI50 (SK-MEL-28)?
A: 13.6 µM (inactive)

Q: What about the GI50 (SK-MEL-2) of the same molecule?
A: 18.6 µM (inactive)

Q: And the GI50 (SK-MEL-5)?
A: 12.9 µM (inactive)

Q: And the GI50 (SK-OV-3)?
A: > 43.5 µM (inactive)

Q: And the GI50 (SN12C)?
A: 13.4 µM (inactive)

Q: And the GI50 (SNB-19)?
A: 18.1 µM (inactive)

Q: What about the GI50 (SNB-75) of the same molecule?
A: 19 µM (inactive)

Q: What about the GI50 (SR) of the same molecule?
A: 1.86 µM (inactive)

Q: And the GI50 (SW-620)?
A: 2.38 µM (inactive)

Q: What about the GI50 (T47D) of the same molecule?
A: 2.92 µM (inactive)

Q: And the GI50 (TK-10)?
A: 5.58 µM (inactive)

Q: And the GI50 (U-251)?
A: 18.5 µM (inactive)

Q: What about the GI50 (UACC-257) of the same molecule?
A: 14.7 µM (inactive)

Q: What about the GI50 (UACC-62) of the same molecule?
A: 15.7 µM (inactive)

Q: What about the GI50 (UO-31) of the same molecule?
A: 14.9 µM (inactive)

Q: Which GI50 (786-0) does the source give for `CCCCCCCCCCCC/C=C\CC[C@@H](O)[C@H](O)CC[C@H](O)[C@@H]1CC[C@@H](CCCCCCCC2=C[C@H](C)OC2=O)O1` [GIGANTRIONENIN] here?
A: 6.21 µM (inactive)

Q: And the GI50 (A498)?
A: 5.56 µM (inactive)

Q: What about the GI50 (A549) of the same molecule?
A: 1.73 µM (inactive)

Q: What about the GI50 (ACHN) of the same molecule?
A: 1.17 µM (inactive)

Q: What about the GI50 (BT-549) of the same molecule?
A: 0.00819 µM (active)

Q: And the GI50 (CAKI-1)?
A: 15.8 µM (inactive)

Q: And the GI50 (CCRF-CEM)?
A: 1.44 µM (inactive)

Q: And the GI50 (COLO 205)?
A: 2.98 µM (inactive)

Q: What about the GI50 (DU-145) of the same molecule?
A: 3.66 µM (inactive)

Q: What about the GI50 (EKVX) of the same molecule?
A: 2.97 µM (inactive)

Q: What about the GI50 (HCC 2998) of the same molecule?
A: 17.3 µM (inactive)

Q: And the GI50 (HCT-116)?
A: 1.87 µM (inactive)

Q: And the GI50 (HCT-15)?
A: 3.85 µM

Q: And the GI50 (HL-60)?
A: 2.17 µM (inactive)

Q: What about the GI50 (HOP-62) of the same molecule?
A: 4.1 µM (inactive)

Q: What about the GI50 (HOP-92) of the same molecule?
A: 2.47 µM (inactive)

Q: And the GI50 (HT-29)?
A: 2.31 µM (inactive)

Q: What about the GI50 (Hs-578T) of the same molecule?
A: 3.03 µM (inactive)

Q: What about the GI50 (IGROV-1) of the same molecule?
A: 3.18 µM (inactive)

Q: And the GI50 (K562)?
A: 1.15 µM (inactive)

Q: And the GI50 (KM12)?
A: 3.92 µM (inactive)

Q: And the GI50 (LOX IMVI)?
A: 1.31 µM (inactive)

Q: And the GI50 (M14)?
A: 13.9 µM (inactive)

Q: What about the GI50 (MCF7) of the same molecule?
A: 2.28 µM (inactive)

Q: And the GI50 (MDA-MB-231)?
A: 7.18 µM (inactive)

Q: What about the GI50 (MDA-MB-435) of the same molecule?
A: 0.883 µM (active)

Q: What about the GI50 (MDA-N) of the same molecule?
A: 3.91 µM (inactive)

Q: What about the GI50 (MOLT-4) of the same molecule?
A: 2.17 µM (inactive)

Q: And the GI50 (Malme-3M)?
A: 13.7 µM (inactive)

Q: What about the GI50 (NCI-H226) of the same molecule?
A: 1.48 µM (inactive)

Q: What about the GI50 (NCI-H23) of the same molecule?
A: 0.11 µM (active)

Q: What about the GI50 (NCI-H460) of the same molecule?
A: 2.91 µM (inactive)

Q: What about the GI50 (NCI-H522) of the same molecule?
A: 7.45 µM (inactive)

Q: What about the GI50 (NCI/ADR-RES) of the same molecule?
A: 1.24 µM (inactive)

Q: And the GI50 (OVCAR-3)?
A: 1.99 µM (inactive)

Q: And the GI50 (OVCAR-4)?
A: 10.8 µM (inactive)

Q: What about the GI50 (OVCAR-5) of the same molecule?
A: 18.5 µM (inactive)

Q: And the GI50 (OVCAR-8)?
A: 2.64 µM (inactive)

Q: What about the GI50 (PC-3) of the same molecule?
A: 2.75 µM (inactive)

Q: And the GI50 (RPMI-8226)?
A: 2.65 µM (inactive)

Q: What about the GI50 (RXF 393) of the same molecule?
A: 19.4 µM (inactive)

Q: What about the GI50 (SF-268) of the same molecule?
A: 4.42 µM (inactive)

Q: And the GI50 (SF-295)?
A: 1.93 µM (inactive)

Q: And the GI50 (SF-539)?
A: > 10 µM (inactive)

Q: And the GI50 (SK-MEL-28)?
A: 2.94 µM (inactive)

Q: What about the GI50 (SK-MEL-2) of the same molecule?
A: 2.24 µM (inactive)

Q: And the GI50 (SK-MEL-5)?
A: 1.26 µM (inactive)

Q: And the GI50 (SN12C)?
A: 5.05 µM (inactive)

Q: And the GI50 (SNB-19)?
A: 1.83 µM (inactive)

Q: And the GI50 (SNB-75)?
A: 7.66 µM (inactive)

Q: What about the GI50 (SR) of the same molecule?
A: 1.41 µM (inactive)

Q: What about the GI50 (SW-620) of the same molecule?
A: 3.35 µM (inactive)

Q: What about the GI50 (T47D) of the same molecule?
A: 3.43 µM (inactive)

Q: What about the GI50 (TK-10) of the same molecule?
A: 2.17 µM (inactive)

Q: What about the GI50 (U-251) of the same molecule?
A: 3.08 µM (inactive)

Q: What about the GI50 (UACC-257) of the same molecule?
A: 0.0546 µM (active)

Q: And the GI50 (UACC-62)?
A: 1.35 µM (inactive)

Q: What about the GI50 (UO-31) of the same molecule?
A: 1.71 µM (inactive)
